From patent publication EP4699613A1, “NOVEL USE OF CPNE7 PROTEIN-DERIVED PEPTIDE” (Hysensbio Co., Ltd, priority 2023, dated 2024)
No end group written: not given here.

Tests used:
[1] = tested on: human-derived three-dimensional skin tissue; assay: Skin penetration of fluorescence-conjugated peptide in human-derived three-dimensional skin tissue (confocal microscopy); assay type: in vitro ADME; details: 1 mM fluorescence-conjugated peptide
Description: To confirm the possibility of skin penetration of the peptides of the present invention, three-dimensional skin tissue composed of epidermis and dermis was created using human-derived keratinocytes and dermal fibroblasts, and then fluorescence-conjugated peptide (SEQ ID NO: 96) of the present invention at 1 mM was treated. After treatment, the position of fluorescence was continuously observed through confocal microscopy at 1, 6, 12, and 24 hours.
FITC fluorescence was attached to the lysine residue of the peptide (SEQ ID NO: 96) of the present invention to create Peptide-FITC using the peptide (SEQ ID NO: 96) of the present invention. Peptide-FITC at 1 mM was treated on human-derived three-dimensional skin tissue (TegoScience, Neoderm-ED) and the skin penetration state of Peptide-FITC was confirmed through confocal microscopy at 1 hour, 6 hours, 12 hours, and 24 hours.

[2] = tested on: Human dermal fibroblasts (hDFs); assay: WST-8 assay, cytotoxicity in dermal fibroblasts; assay type: cell-based; details: 48 hours treatment; tested at 10, 100 µM, 1, 5, 10 mM; WST-8, 450nm absorbance
Description: Human dermal fibroblasts (hDFs) were dispensed at 0.3×10^5/well in 96-well plates (using Fibroblast Growth Medium (Lonza, CC-4126) containing 2% FBS, 0.1% Insulin, 0.1% FGF, 0.1% Gentamycin sulfate-Amphotericin) and cultured for 24 hours in an incubator at 37°C, 5% CO2 conditions.
WST-8 analysis was performed to confirm cytotoxicity of the peptide (SEQ ID NO: 96) in dermal fibroblasts. The peptide was treated on dermal fibroblasts at concentrations of 10, 100 µM, 1, 5, 10 mM respectively. After treating for 48 hours at each concentration, WST-8 solution was dispensed into the culture medium at a 10:1 ratio, light-shielded, reacted for 2 hours under 37°C incubator conditions, and then measured at 450nm absorbance with a microplate.
The peptide (SEQ ID NO: 96) of the present invention was treated on dermal fibroblasts at concentrations of 10, 100 µM, 1, 5, 10 mM respectively. After 48 hours, cell viability was quantified through WST-8 analysis.

Sequence: KYKQKRRSYK [SEQ ID NO: 96, KYKQKRRSYK]
- position of fluorescence (skin penetration) ([1]; after 1 hour): observed in the stratum corneum
- position of fluorescence (skin penetration) ([1]; after 6 hours): observed in the epidermal layer
- position of fluorescence (skin penetration) ([1]; after 24 hours): existed in the dermal layer
- position of fluorescence (skin penetration) ([1]; from 12 hours onward): began to be observed in the dermal layer
- no cytotoxicity to dermal fibroblasts up to a concentration of [2]: ≤ 5 mM
- significant cytotoxicity at a concentration of [2]: 10 mM
